Measured values from ChEMBL document CHEMBL3864160, “Discovery of fluorobenzimidazole HCV NS5A inhibitors” (Bioorg Med Chem Lett, 2016).

Experiments:
Conditions in all cases: Huh-7, 96 h
[1] = Inhibition of Hepatitis C virus genotype 6a replicon NS5A transfected in human HuH7 cells assessed as decrease in replication of viral replicon after 4 days by luciferase reporter gene assay; format: cell-based, Hepatitis C virus subtype 6a
[2] = Inhibition of Hepatitis C virus genotype 2b replicon NS5A transfected in human HuH7 cells assessed as decrease in replication of viral replicon after 4 days by luciferase reporter gene assay; format: cell-based, Hepatitis C virus subtype 2b
[3] = Inhibition of Hepatitis C virus genotype 1b Con1 replicon NS5A transfected in human HuH7 cells assessed as decrease in replication of viral replicon after 4 days by luciferase reporter gene assay; format: cell-based, Hepatitis C virus (isolate Con1)
[4] = Inhibition of Hepatitis C virus genotype 3a replicon NS5A transfected in human HuH7 cells assessed as decrease in replication of viral replicon after 4 days by luciferase reporter gene assay; format: cell-based, Hepatitis C virus subtype 3a
[5] = Inhibition of Hepatitis C virus genotype 1a H77 replicon NS5A transfected in human HuH7 cells assessed as decrease in replication of viral replicon after 4 days by luciferase reporter gene assay; format: cell-based, Hepatitis C virus (isolate H77)
[6] = Inhibition of Hepatitis C virus genotype 4a replicon NS5A transfected in human HuH7 cells assessed as decrease in replication of viral replicon after 4 days by luciferase reporter gene assay; format: cell-based, Hepatitis C virus subtype 4a
[7] = Inhibition of Hepatitis C virus genotype 2a replicon NS5A transfected in human HuH7 cells assessed as decrease in replication of viral replicon after 4 days by luciferase reporter gene assay; format: cell-based, Hepatitis C virus subtype 2a

Compound	EC50 [1] [nM]	EC50 [2] [nM]	EC50 [3] [nM]	EC50 [4] [nM]	EC50 [5] [nM]	EC50 [6] [nM]	EC50 [7] [nM]
COC(=O)N[C@H](C(=O)N1CCC[C@H]1c1nc2cc(-c3ccc(-c4cc5nc([C@@H]6CCCN6C(=O)[C@@H](NC(=O)OC)C(C)C)[nH]c5cc4C(F)(F)F)cc3)c(C(F)(F)F)cc2[nH]1)C(C)C	21.5	4.49	0.006	43.4	12	0.049	49.6
COC(=O)N[C@H](C(=O)N1CCC[C@H]1c1nc2cc(-c3ccc(-c4cc(C)c5[nH]c([C@@H]6CCCN6C(=O)[C@@H](NC(=O)OC)C(C)C)nc5c4)cc3)cc(C)c2[nH]1)C(C)C	22.9	3.93	0.031	17.5	0.98	0.404	> 100
COC(=O)N[C@H](C(=O)N1CCC[C@H]1c1nc2ccc(-c3ccc(-c4ccc5nc([C@@H]6CCCN6C(=O)[C@@H](NC(=O)OC)C(C)C)[nH]c5c4)cc3)cc2[nH]1)C(C)C		0.06	0.022	1.12	0.272	0.062	75.5
COC(=O)N[C@H](C(=O)N1CCC[C@H]1c1nc2c(C)c(-c3ccc(-c4ccc5[nH]c([C@@H]6CCCN6C(=O)[C@@H](NC(=O)OC)C(C)C)nc5c4C)cc3)ccc2[nH]1)C(C)C	7.05	0.32	0.014	0.104	0.038	0.014	28
COC(=O)N[C@H](C(=O)N1CCC[C@H]1c1nc2cc(-c3ccc(-c4cnc5[nH]c([C@@H]6CCCN6C(=O)[C@@H](NC(=O)OC)C(C)C)nc5c4)cc3)cnc2[nH]1)C(C)C		6.5	1.54	> 100	5.58	1.1	> 100
COCc1c(-c2ccc(-c3ccc4[nH]c([C@@H]5CCCN5C(=O)[C@@H](NC(=O)OC)C(C)C)nc4c3COC)cc2)ccc2[nH]c([C@@H]3CCCN3C(=O)[C@@H](NC(=O)OC)C(C)C)nc12	> 100	77.5	0.193	15.5	1.18	1.19	> 100
COC(=O)N[C@H](C(=O)N1CCC[C@H]1c1nc2cc(-c3ccc(-c4cc(F)c5[nH]c([C@@H]6CCCN6C(=O)[C@@H](NC(=O)OC)C(C)C)nc5c4)cc3)cc(F)c2[nH]1)C(C)C		0.516	< 0.03	6.49	0.579	0.04	13.8
COC(=O)N[C@H](C(=O)N1CCC[C@H]1c1nc2cc(-c3ccc(-c4cc(OC)c5[nH]c([C@@H]6CCCN6C(=O)[C@@H](NC(=O)OC)C(C)C)nc5c4)cc3)cc(OC)c2[nH]1)C(C)C	> 100	56.8	0.095	92.4	0.628	0.162	> 100
COC(=O)N[C@H](C(=O)N1CCC[C@H]1c1nc2cc(-c3ccc(-c4cc5nc([C@@H]6CCCN6C(=O)[C@@H](NC(=O)OC)C(C)C)[nH]c5cc4C)cc3)c(C)cc2[nH]1)C(C)C	3.24	0.148	0.008	4.45	1.47	< 0.03	9.18
COC(=O)N[C@H](C(=O)N1CCC[C@H]1c1nc2nc(-c3ccc(-c4ccc5[nH]c([C@@H]6CCCN6C(=O)[C@@H](NC(=O)OC)C(C)C)nc5n4)cc3)ccc2[nH]1)C(C)C		1.43	0.283	6.69	1.12	1.84	> 100
COC(=O)N[C@H](C(=O)N1CCC[C@H]1c1cc2nc(-c3ccc(-c4ccc5[nH]c([C@@H]6CCCN6C(=O)[C@@H](NC(=O)OC)C(C)C)cc5n4)cc3)ccc2[nH]1)C(C)C		> 100	7.44	> 100	> 100	> 100	> 100
